Test results: patent publication US20110312984A1, “STAT3 INHIBITORS” (priority 2008, published 2011)

System: triple negative human breast cancer xenograft
Assay: Triple-negative human breast cancer xenograft, MSFE after two days of treatment
Format: in vivo, SCID Beige mice
Conditions: 250 mcg, n=3, P<0.05
From the text: A tumor line derived from a “triple negative” (ER-negative, PgR-negative, and HER-2 negative) human breast cancer biopsy specimen was transplanted into immunocompromised SCID Beige mice. The animals (n=3) received two doses of vehicle control, 2 different doses of Cpd 188 (125 or 250 mcg), a G-quartet oligodeoxynucleotide (GQ-ODN, T40214; GQ-I) previously determined to target Stat3 (Jing et al., 2004) and a control non-specific ODN (GQ-II) each at two doses (125 or 250 mcg). The animals were sacrificed after only two days of treatment, and MSFE determined.
Xenograft assays. One can use two xenografts developed from human breast cancer biopsies that express activated p-Stat3 by IHC. From these established xenograft lines, for each of the top 5 inhibitors, the following studies may be undertaken: a) short term experiments with stem cell inhibitors at two doses vs. vehicle control and b) the optimal dose of the combination of chemotherapy with each of the five stem cell inhibitors.
a) Short term (2-day) experiments: One can test the five inhibitors at 2 doses. […]
b) Long-term (2-week studies) experiments: One can assess the effect of the self-renewal inhibitor on tumor growth and stem cell behavior. […] Size of the xenografts is monitored longitudinally by caliper measurement using the RECIST criteria for assessment of tumor response. […]

SMILES: O=C(O)CSc1cc(NS(=O)(=O)c2ccc(C(=O)O)cc2)c2ccccc2c1O [Cpd188, 4-[({3-[(carboxymethyl)thio]-4-hydroxy-1-naphthyl}amino)sulfonyl]benzoic acid]
- reduction in MSFE compared to control: significant reduction
